Laboratory results as given in PMC11085442 (Molecules, 2024).
In brackets after ≈: the same amount, converted by molar mass.

Assays:
[1] = test system: PC 12 cell lines; assay: Radiation protection in vitro (CCK-8); format: cell-based, rat; details: for radiation protection capacity / radiation protection capability compared with curcumin: 10 μM; for radiation protection capacity: versus radiation group; for viability at 5 µM / viability at 10 µM / viability at 20 µM: Rattus norvegicus; for viability at 5 µM: PC-12, Dose 5 μM; for viability at 5 µM / viability at 10 µM / viability at 20 µM / Cell viability: radiation 8.0 Gy, PC 12, radiation group 50.22 ± 1.08; for viability at 10 µM: PC-12, Dose 10 μM; for viability at 20 µM: PC-12, Dose 20 μM; for Cell viability: in % (unit assumed); for radiation protection capability compared with curcumin: irradiated PC 12
Procedure: The rat adrenal pheochromocytoma cells (PC 12) were used for in vitro studies. A Cell Counting Kit-8 (CCK-8, Applygen Technologies Co., Ltd., Beijing, China) assay was used to determine cell viability. […] Cells were irradiated with dose of 8.0 Gy at a dose rate of 0.8 Gy/min. Then, 10 μL CCK-8 solution was added to all the wells. After 4 h incubation, the absorbance at 450 nm of each well was measured in a multiscan photometer.

[2] = test system: LPS-stimulated RAW264.7 cell lines; assay: LPS-induced NO production (Griess) in RAW264.7; format: cell-based, murine; details: for inhibitory activity against NO production compared with curcumin: 10 μM; for The production of NO: LPS group 49.86 ± 0.62, control 1.20 ± 0.38; for inhibition at 10 µM: read-out: inhibition rate (anti-inflammatory activity)
Procedure: RAW 264.7 cells were plated in 96-well plates at a density of 1 × 10^4 cells/well and incubated overnight at 37 °C under 5% CO2. […] Dexamethasone (Solarbio, D8040, Beijing, China) was used as the positive control. Then, 24 h later, NO production was determined by measuring the nitrite content using Griess reagents. Fifty microliters of culture supernatants were transferred to 96-well plates and mixed with 50 μL Griess reagent A. After incubation at room temperature for 5 min, the samples were mixed with an equal volume Griess reagent B for another 5 min. The absorbance of each mixture at 540 nm was measured using a microplate reader.

[3] = test system: H2O2-stimulated PC 12 cell lines; assay: Protection against H2O2-induced oxidative damage (CCK-8); format: cell-based, rat; details: for Cell viability / viability at 5 µM / viability at 10 µM / viability at 20 µM: H2O2-induced oxidative damage, PC 12, H2O2 group 49.69 ± 1.37, control 100; for Cell viability: in % (unit assumed); for viability at 5 µM / viability at 10 µM / viability at 20 µM: Rattus norvegicus; for viability at 5 µM: PC-12, Dose 5 μM; for viability at 10 µM: PC-12, Dose 10 μM; for viability at 20 µM: PC-12, Dose 20 μM
Procedure: PC 12 cells were seeded in 96-well plates at a density of 8000 cells/well and incubated overnight. […] After incubating under the same conditions for 24 h, 10 μL CCK-8 solution was added to each well. After 2 h incubation, the absorbance of each well was measured at 450 nm using a microplated reader (Multiskan MK-3, Thermo, Waltham, MA, USA).

[4] = Aqueous solubility determination by UV spectrophotometer; format: physicochemical; details: water, thermodynamic from solid, saturated solution concentration
Procedure: A UV spectrophotometer was used to test the aqueous solubility of target compounds. Each compound to be tested was prepared into solutions with concentrations of 0.2 M, 0.1 M, 0.05 M, 0.025 M, 0.0125 M, 0.00625 M, and 0.003125 M. The optical density (OD) values of the prepared solutions were measured using an ultraviolet spectrophotometer, and concentration–OD-value standard curves were drawn for each compound to be tested. The saturated solutions of the target compounds were diluted by 5000 times and detected using an ultraviolet spectrophotometer to measure the OD values, respectively. The measured OD values were substituted into the corresponding concentration-OD value standard curve to calculate the diluted concentrations, which were multiplied by 5000 to obtain the saturated solution concentrations of the target compounds.

[5] = Dose 5 μM, LPS-stimulated RAW264.7
[6] = Dose 10 μM, LPS-stimulated RAW264.7
[7] = Dose 15 μM, LPS-stimulated RAW264.7
[8] = Mus musculus, LPS-stimulated RAW264.7

Row | SMILES | viability at 5 µM [1] [%] | viability at 10 µM [1] [%] | viability at 20 µM [1] [%] | inhibitory activity against NO production compared with curcumin [2] | The production of NO [2, 5] | The production of NO [2, 6] | The production of NO [2, 7] | Cell viability ([3]; Dose 5 μM) | Cell viability ([3]; Dose 10 μM) | Cell viability ([3]; Dose 20 μM) | Cell viability ([1]; Dose 5 μM) | Cell viability ([1]; Dose 10 μM) | Cell viability ([1]; Dose 20 μM) | viability at 5 µM [3] [%] | viability at 10 µM [3] [%] | viability at 20 µM [3] [%] | also measured
1 | COc1cc(/C=C/C(=O)CC(=O)/C=C/c2cc(C)c(O)cc2C)cc(CN(C)C)c1O [Compound 12] | 56.6 ± 1.03 | 63.1 ± 1.52 | 76.8 ± 1.27 | better inhibitory activity | 32.06 ± 0.58 | 15.78 ± 0.50 | 11.39 ± 1.00 | 60.69 ± 1.53 | 70.31 ± 1.65 | 79.23 ± 1.18 |  |  |  |  |  |  | radiation protection capacity [1]: a certain degree of radiation protection capacity
2 | COc1cc(/C=C/C(=O)CC(=O)/C=C/c2ccc(O)cc2F)cc(CN(C)C)c1O [Compound 4] |  |  |  |  | 40.64 ± 1.28 | 29.91 ± 1.78 | 10.48 ± 0.47 |  |  |  | 49.46 ± 1.97 | 51.75 ± 0.40 | 59.56 ± 0.59 | 61.7 ± 2.59 | 71 ± 2.33 | 84.7 ± 2.76 | 
3 | COc1cc(/C=C/C(=O)CC(=O)/C=C/c2cc(OC)c(O)c(OC)c2)cc(CN(C)C)c1O [Compound 2] |  |  |  |  | 43.78 ± 1.52 | 42.04 ± 1.70 | 36.99 ± 1.85 |  |  |  | 50.96 ± 1.31 | 52.89 ± 2.05 | 54.68 ± 1.78 | 55.7 ± 0.79 | 58.2 ± 0.8 | 63.4 ± 1.13 | 
4 | COc1cc(/C=C/C(=O)CC(=O)/C=C/c2ccc(O)cc2)cc(CN(C)C)c1O [Compound 10a] |  |  |  | better inhibitory activity | 24.20 ± 1.36 | 7.81 ± 0.85 | 3.91 ± 0.22 |  |  |  | 61.98 ± 2.45 | 67.94 ± 4.69 | 81.14 ± 3.72 | 54.9 ± 1.34 | 64.7 ± 2 | 84 ± 4.36 | inhibition at 15 µM ([2]; Mus musculus, at 15 μM, LPS-stimulated RAW264.7, read-out: inhibition rate on NO release): 92%; solubility [4]: 335 mg/mL (≈ 848 mM); cell survival rate (anti-oxidant) ([3]; at 10 μM, H2O2-stimulated PC 12): 64%
5 | COc1cc(/C=C/C(=O)CC(=O)/C=C/c2ccc(O)c(Cl)c2)cc(CN(C)C)c1O [Compound 7] |  |  |  |  | 35.15 ± 2.72 | 18.46 ± 2.34 | 10.47 ± 1.32 |  |  |  | 61.54 ± 2.47 | 63.26 ± 3.00 | 69.98 ± 4.31 | 54.4 ± 1.18 | 61.9 ± 1.29 | 78.2 ± 1.43 | 
6 | COc1cc(/C=C/C(=O)CC(=O)/C=C/c2c(OC)cc(O)cc2OC)cc(CN(C)C)c1O [Compound 14] | 53.08 ± 0.34 | 54.4 ± 0.72 | 63.5 ± 1.49 |  | 27.84 ± 1.41 | 22.09 ± 0.55 | 9.39 ± 0.34 | 59.32 ± 2.89 | 65.73 ± 2.40 | 74.30 ± 1.25 |  |  |  |  |  |  | 
7 | COc1cc(/C=C/C(=O)CC(=O)/C=C/c2ccc(O)cc2)cc(CN(C)C)c1O [Compound 10] | 58.4 ± 1.95 | 63.9 ± 2.22 | 79.3 ± 3.13 | better inhibitory activity | 36.66 ± 2.00 | 15.36 ± 2.09 | 4.91 ± 0.77 | 53.53 ± 2.28 | 58.20 ± 1.24 | 77.80 ± 2.65 |  |  |  |  |  |  | inhibition at 10 µM [2, 8]: 71%
8 | COc1cc(/C=C/C(=O)CC(=O)/C=C/c2c(C)cc(O)cc2C)cc(CN(C)C)c1O [Compound 13] | 61.4 ± 1.58 | 67.8 ± 2.32 | 87.38 ± 0.6 |  | 26.57 ± 1.74 | 21.53 ± 0.35 | 10.02 ± 0.61 | 62.94 ± 0.50 | 69.55 ± 1.06 | 80.61 ± 0.83 |  |  |  |  |  |  | 
9 | COc1cc(/C=C/C(=O)CC(=O)/C=C/c2cc(CN(C)C)c(O)c(OC)c2)ccc1O [Compound 15a] |  |  |  | better inhibitory activity | 33.79 ± 2.90 | 17.01 ± 0.60 | 4.71 ± 0.18 |  |  |  |  |  |  | 62.2 ± 2.53 | 72.5 ± 2.02 | 89.22 ± 0.36 | solubility [4]: 284 mg/mL (≈ 667 mM)
10 | COc1cc(O)ccc1/C=C/C(=O)CC(=O)/C=C/c1cc(CN(C)C)c(O)c(OC)c1 [Compound 9] |  |  |  |  | 42.38 ± 2.73 | 29.76 ± 1.48 | 19.69 ± 0.78 |  |  |  | 56.32 ± 1.77 | 59.94 ± 1.26 | 65.00 ± 1.84 | 53.22 ± 0.26 | 58.53 ± 0.46 | 66.1 ± 1.09 | inhibition at 10 µM [2, 8]: 41%
11 | COc1cc(/C=C/C(=O)CC(=O)/C=C/c2ccc(OC)c(OC)c2OC)cc(CN(C)C)c1O [Compound 6] |  |  |  | better inhibitory activity | 27.16 ± 2.73 | 14.67 ± 3.66 | 5.95 ± 0.13 |  |  |  | 58.25 ± 1.05 | 62.18 ± 1.03 | 83.08 ± 6.65 | 56.6 ± 1.66 | 67.8 ± 1.91 | 94.89 ± 0.58 | radiation protection capability compared with curcumin [1]: better radiation protection capability; radiation protection capacity [1]: a certain degree of radiation protection capacity
12 | COc1cc(/C=C/C(=O)CC(=O)/C=C/c2cc(C)c(O)c(C)c2)cc(CN(C)C)c1O [Compound 8] |  |  |  |  | 42.90 ± 0.85 | 20.21 ± 1.82 | 5.46 ± 0.34 |  |  |  | 53.58 ± 0.78 | 55.23 ± 1.26 | 78.50 ± 2.59 | 64.6 ± 1.64 | 67.8 ± 2.26 | 81.7 ± 3.21 | radiation protection capacity [1]: a certain degree of radiation protection capacity
13 | COc1cc(/C=C/C(=O)CC(=O)/C=C/c2ccc(O)cc2C)cc(CN(C)C)c1O [Compound 3] |  |  |  |  | 39.26 ± 2.12 | 30.62 ± 1.71 | 10.36 ± 3.69 |  |  |  | 49.57 ± 2.70 | 51.85 ± 2.04 | 57.44 ± 1.80 | 64.7 ± 2.69 | 71.7 ± 3.77 | 81.7 ± 2.41 | 
14 | COc1cc(/C=C/C(=O)CC(=O)/C=C/c2cc(CN(C)C)c(O)c(OC)c2)ccc1O [Compound 15] | 58.6 ± 0.61 | 63.45 ± 0.21 | 77 ± 1.23 |  | 41.85 ± 1.07 | 28.31 ± 0.33 | 14.00 ± 0.92 | 60.18 ± 1.41 | 71.98 ± 3.71 | 87.82 ± 1.77 |  |  |  |  |  |  | radiation protection capability compared with curcumin [1]: no statistical difference; inhibition at 10 µM [2, 8]: 44%; anti-oxidant capacity compared with curcumin ([3]; 10 μM, H2O2-stimulated PC 12): no statistical difference
